Results on 19 molecules are retold here after patent US20220265723A1, “NON-VIRAL MODIFICATION OF MESENCHYMAL STEM CELLS” (NATIONAL UNIVERSITY OF SINGAPORE, priority 2019, published 2022).

SMILES strings stand for the structures. Like-named read-outs stand apart in the source and are kept apart here.

The conditions of experiment [1]: cited from earlier work; for Potential of activation (fold): per enzyme/prodrug system.
Experiment [2] relates to prodrug-activating enzyme of each system: CA, CD, CPG2, Cyt-450, dCK, HSV-TK, NR, PNP, TP, VZV-TK. The settings on record: systems: CA/CPT-11, CD/5-FC, CPG2/CMDA, Cyt-450/CP, IF, dCK/ara-C, HSV-TK/GCV, ACV, NR/CB1954, PNP/6-MePdR, TP/5′-DFUR, VZV-TK/ara-M; read-out: KM (S0.5); cited from earlier work.
For experiment [3] the following is noted: systems: CA/CPT-11, CD/5-FC, CPG2/CMDA, CJS278, Cyt-450, dCK/ara-C, HSV-TK, NR/CB1954, PNP/6-MePdR, TP/5′-DFUR, VZV-TK/ara-M, XGPRT/6-TX, 6-TG; cited from earlier work.
The subject of experiment [4] is CDy::UPRT_AT-MSCs. The experiment can be described thus: Sensitivity of modified AT-MSCs to 5FC and 5FU, MTS assay. The class given is cell-based, human. As to the method: The cell viability at each time point was measured by standard MTS assay. At various time points, samples without 5FC treatment served as control. […] MTS assay were used to measure cell viability post treatment. Conditions without 5FU treatment was taken as 100%. Results were presented as mean±SD (n=4). […] Isotype antibodies served as respective controls. […] At the end of incubation, cells were stained with Alizarin red S. Calcium deposits stained with Alizarin red S were one of the phenotype indicating differentiated AT-MSCs. […] Fourteen days later, cells were stained with Oil Red-O. This dye stained for oil droplets visible in the cells, indicative of adipogenic differentiation. The images were captured at 20× magnification;
Quadruplicates of AT-MSC, MKN1, MKN45, MDA-MB-231 (10,000 cells per well) and U-251MG (4000 cells per well) for each treatment were plated into 96-well plates. […] One to five days later, plates were subjected to the CellTiter 96 Aqueous One Solution Cell Proliferation Assay (Promega). The colorimetric read out was measured spectrophotometrically at 490 nm. Results were expressed as the percentage of cell viability, in relative to cells in condition without 5-FC or 5-FU (set to 100%).
Background: Tetrazolium dyes change colour on reduction, which living cells bring about.

Setting [5] is: prodrug of the enzyme/prodrug system, read-out: Potency, IC50 (μM) Prodrug.
Where [6] appears, read: active drug formed from the prodrug of the system, read-out: Potency, IC50 (μM) Drug.

For `CS(=O)(=O)OCCN(CCCl)c1ccc(C(=O)N[C@@H](CCC(=O)O)C(=O)O)cc1` [CMDA], in experiment [1] (setting [5]), the IC50 (usually the midpoint of a concentration-inhibition curve) is 1700 to 3120 µM. Besides, the Km (commonly the concentration of substrate that gives half-maximal velocity) in experiment [2] is 3.4 µM.

Turning to `Cc1ncnc2c1ncn2[C@H]1C[C@H](O)[C@@H](CO)O1` [6-MePdR], the “Potential of activation (fold)” value in experiment [1] is 25-1,000 fold. Further, in experiment [1] (setting [5]), the IC50 is above 200 µM. For the same molecule, the “Degree of activation (fold)” value in experiment [3] was 40 fold. Besides, the Km in experiment [2] was 14 to 23 µM.

On to `O=c1[nH]c(=S)c2[nH]cnc2[nH]1` [6-TX], for which, in experiment [1] (setting [5]), the IC50 is above 50 µM. In addition, the “Degree of activation (fold)” value in experiment [3] is given as 6-TX: >20; fold.

For the molecule `Nc1nc(=O)[nH]cc1F` [5FC, 5-fluorocytosine], in experiment [4] (150 μg/mL 5FC, over time), the “cell viability of CDy::UPRT modified AT-MSCs” value is listed as “reduced cell viability over time”.

On to `C[C@H]1O[C@@H](n2cc(F)c(=O)[nH]c2=O)[C@H](O)[C@@H]1O` [5′-DFUR], for which the “Potential of activation (fold)” value in experiment [1] was 7000 fold. Also, the IC50 in experiment [1] (setting [5]) is 17 µM. In experiment [3], the “Degree of activation (fold)” value was 165 fold. Moreover, the Km in experiment [2] was 325 to 433 µM.

In the case of `O=P1(NCCCl)OCCCN1CCCl` (centres unmarked) [IF], the IC50 in experiment [1] (setting [5]) was around 4000 µM. Besides, the Km in experiment [2] is 480 µM.

With `O=c1[nH]cc(F)c(=O)[nH]1` [5FU, 5-fluorouracil], the IC50 in experiment [1] (setting [6]) was 4 to 23.5 µM. In addition, in experiment [4] (100 μg/mL 5FU, 5 days), the “susceptibility of CDy::UPRT_AT-MSCs versus unmodified AT-MSCs” value is given as “increased susceptibility of suicide effect”.

For the molecule `O=P1(N(CCCl)CCCl)NCCCO1` (centres unmarked) [CP], the IC50 in experiment [1] (setting [5]) is around 4000 µM. Also, in experiment [2], the Km was 300 µM.

On to `NC(=O)c1cc(N2CC2)c([N+](=O)[O-])cc1[N+](=O)[O-]` [CB1954], for which, in experiment [1], the “Potential of activation (fold)” value is given as >50,000 fold. Besides, in experiment [1] (setting [5]), the IC50 is above 1000 µM. For the same molecule, the “Degree of activation (fold)” value in experiment [3] is reported as 14-10,000 fold. The Km in experiment [2] is 900 µM.

In the case of `Cc1ncnc2nc[nH]c12`, in experiment [1] (setting [6]), the IC50 was 3.7 µM.

For `O=c1[nH]c(=O)n([C@H]2C[C@H](O)[C@@H](CO)O2)cc1F` [5-FUdR], in experiment [1] (setting [6]), the IC50 was 0.0023 µM.

Turning to `COc1cccc2c1C(=O)c1c(O)c3c(c(O)c1C2=O)C[C@@](O)(C(=O)CO)C[C@@H]3O[C@H]1C[C@H](N)[C@H](O)[C@H](C)O1` [Doxorubicin], the IC50 in experiment [1] (setting [6]) is 0.012 µM. Besides, the “Potential of activation (fold)” value in experiment [1] is reported as 21 fold. Moreover, the “Degree of activation (fold)” value in experiment [3] is 11 fold.

Consider `CS(=O)(=O)OCCN(CCCl)c1ccc(C(=O)O)cc1` [CMBA], for which the IC50 in experiment [1] (setting [6]) is 8 to 65 µM.

For the molecule `Nc1ccn([C@@H]2O[C@H](CO)[C@@H](O)[C@@H]2O)c(=O)n1` [ara-C], in experiment [1] (setting [5]), the IC50 is 0.3 to 0.6 µM. Further, in experiment [3], the “Degree of activation (fold)” value is reported as 2-100 fold. Also, the Km in experiment [2] is 25.6 µM.

As to `CCc1c2c(nc3ccc(O)cc13)-c1cc3c(c(=O)n1C2)COC(=O)[C@]3(O)CC` [SN-38], the IC50 in experiment [1] (setting [6]) was 0.003 to 0.011 µM.

Regarding `COc1ncnc2c1ncn2[C@@H]1O[C@H](CO)[C@@H](O)[C@@H]1O` [ara-M], the “Potential of activation (fold)” value in experiment [1] was >2,000 fold. Moreover, the IC50 in experiment [1] (setting [5]) is above 2000 µM. Moreover, the “Degree of activation (fold)” value in experiment [3] is on record as 55-600 fold. Further, the Km in experiment [2] is 56 µM.

On to `CCc1c2c(nc3ccc(OC(=O)N4CCC(N5CCCCC5)CC4)cc13)-c1cc3c(c(=O)n1C2)COC(=O)[C@]3(O)CC` [CPT-11], for which, in experiment [1] (setting [5]), the IC50 was 1.6 to 8.1 µM.

`Nc1nc(=S)c2[nH]cnc2[nH]1` [6-TG]: the IC50 in experiment [1] (setting [5]) is 0.5 µM. Besides, in experiment [3], the “Degree of activation (fold)” value is reported as 6-TG: 10 fold.

On to `Nc1nc(O)c2ncn(COC(CO)CO)c2n1` [GCV, ganciclovir], for which the IC50 in experiment [1] (setting [5]) was 200 to 600 µM.
